Target: Tie-2 (Homo sapiens, UniProt Q02763)
Test: Tie-2 tyrosine kinase activity: kinase-dependent ATP consumption (pEY substrate, luciferase/luciferin chemiluminescence) or 33P-ATP incorporation into substrate
Assay type: biochemical
Settings: Tie-2 (human enzyme) inhibition, Table 2, class symbols A-D
Outline: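 Tie-2 kinase activity is read either as ATP consumption with pEY substrate by luciferase/luciferin chemiluminescence, or as 33P incorporation from 33P-ATP into plate-adsorbed substrate by scintillation counting. IC50 values are binned as A <50 nM, B >50–1000 nM, C >1000–<10,000 nM, and D ≥10,000 nM.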

Tie-2, sequence (Q02763 23-1124): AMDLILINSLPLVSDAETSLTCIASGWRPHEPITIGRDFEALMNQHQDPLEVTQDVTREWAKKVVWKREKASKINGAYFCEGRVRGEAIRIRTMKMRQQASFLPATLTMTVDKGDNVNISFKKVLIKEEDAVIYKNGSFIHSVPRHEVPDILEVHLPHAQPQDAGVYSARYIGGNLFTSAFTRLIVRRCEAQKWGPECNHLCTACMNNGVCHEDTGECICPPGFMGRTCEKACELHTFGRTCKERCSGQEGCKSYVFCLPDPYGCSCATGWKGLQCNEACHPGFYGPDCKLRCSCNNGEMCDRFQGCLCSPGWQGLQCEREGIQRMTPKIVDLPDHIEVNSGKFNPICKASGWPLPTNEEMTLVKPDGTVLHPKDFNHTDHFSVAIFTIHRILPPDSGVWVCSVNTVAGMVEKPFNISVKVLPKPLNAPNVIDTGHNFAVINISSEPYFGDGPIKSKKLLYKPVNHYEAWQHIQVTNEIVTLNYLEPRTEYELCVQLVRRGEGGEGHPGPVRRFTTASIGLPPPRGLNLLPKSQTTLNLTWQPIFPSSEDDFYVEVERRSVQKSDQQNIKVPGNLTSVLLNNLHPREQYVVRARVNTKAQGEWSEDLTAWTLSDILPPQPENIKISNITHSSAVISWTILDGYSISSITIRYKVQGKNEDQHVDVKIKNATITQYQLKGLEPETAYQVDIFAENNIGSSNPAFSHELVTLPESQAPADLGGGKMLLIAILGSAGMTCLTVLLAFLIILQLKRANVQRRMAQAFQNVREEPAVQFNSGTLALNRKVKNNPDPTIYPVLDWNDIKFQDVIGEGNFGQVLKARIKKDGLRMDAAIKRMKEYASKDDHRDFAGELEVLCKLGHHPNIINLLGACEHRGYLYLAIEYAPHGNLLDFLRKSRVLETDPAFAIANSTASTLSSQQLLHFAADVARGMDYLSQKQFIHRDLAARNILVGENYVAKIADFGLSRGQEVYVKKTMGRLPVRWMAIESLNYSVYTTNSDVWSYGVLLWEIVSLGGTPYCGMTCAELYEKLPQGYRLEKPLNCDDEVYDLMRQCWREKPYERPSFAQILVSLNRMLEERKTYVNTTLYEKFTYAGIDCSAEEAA

Row | SMILES | IC50
1 | COc1ccc(-c2nc(-c3ccncc3)nn2CCN(C(=O)NCCc2ccccc2)C2CCCC2)cc1Cl [Entry 113, N-(2-{5-[3-chloro-4-(methyloxy)phenyl]-3-pyridin-4-yl-1H-1,2,4-triazol-1-yl}ethyl)-N-cyclopentyl-N′-(2-phenylethyl)urea] | ≥ 10 µM
2 | C=C(C)c1cccc(C(C)(C)NC(=O)N(CCn2nc(-c3ccncc3)nc2-c2ccc(OC)c(Cl)c2)C2CCCC2)c1 [Entry 114, N-(2-{5-[3-chloro-4-(methyloxy)phenyl]-3-pyridin-4-yl-1H-1,2,4-triazol-1-yl}ethyl)-N-cyclopentyl-N′-{1-methyl-1-[3-(1-methylethenyl)phenyl]ethyl}urea] | ≥ 10 µM
3 | COc1ccc(-c2nc(-c3ccncc3)nn2CCN(C(=O)Nc2ccccc2F)C2CCCC2)cc1Cl [Entry 115, N-(2-{5-[3-chloro-4-(methyloxy)phenyl]-3-pyridin-4-yl-1H-1,2,4-triazol-1-yl}ethyl)-N-cyclopentyl-N′-(2-fluorophenyl)urea] | ≥ 10 µM
4 | COc1ccc(-c2nc(-c3ccncc3)nn2CCN(C(=O)Nc2ccc(F)cc2F)C2CCCC2)cc1Cl [Entry 116, N-(2-{5-[3-chloro-4-(methyloxy)phenyl]-3-pyridin-4-yl-1H-1,2,4-triazol-1-yl}ethyl)-N-cyclopentyl-N′-(2,4-difluorophenyl)urea] | ≥ 10 µM
5 | COc1ccc(-c2nc(-c3ccncc3)nn2CCN(C(=O)Nc2c(F)cccc2F)C2CCCC2)cc1Cl [Entry 117, N-(2-{5-[3-chloro-4-(methyloxy)phenyl]-3-pyridin-4-yl-1H-1,2,4-triazol-1-yl}ethyl)-N-cyclopentyl-N′-(2,6-difluorophenyl)urea] | ≥ 10 µM
6 | COc1ccc(-c2nc(-c3ccncc3)nn2CCN(C(=O)Nc2cccc(Cl)c2Cl)C2CCCC2)cc1Cl [Entry 119, N-(2-{5-[3-chloro-4-(methyloxy)phenyl]-3-pyridin-4-yl-1H-1,2,4-triazol-1-yl}ethyl)-N-cyclopentyl-N′-(2,3-dichlorophenyl)urea] | ≥ 10 µM
7 | COc1ccc(OC)c(NC(=O)N(CCn2nc(-c3ccncc3)nc2-c2ccc(OC)c(Cl)c2)C2CCCC2)c1 [Entry 120, N′-[2,5-bis(methyloxy)phenyl]-N-(2-{5-[3-chloro-4-(methyloxy)phenyl]-3-pyridin-4-yl-1H-1,2,4-triazol-1-yl}ethyl)-N-cyclopentylurea] | ≥ 10 µM
8 | COc1ccc(-c2nc(-c3ccncc3)nn2CCN(C(=O)Nc2ccccc2C(F)(F)F)C2CCCC2)cc1Cl [Entry 122, N-(2-{5-[3-chloro-4-(methyloxy)phenyl]-3-pyridin-4-yl-1H-1,2,4-triazol-1-yl}ethyl)-N-cyclopentyl-N′-[2-(trifluoromethyl)phenyl]urea] | ≥ 10 µM
9 | COc1ccc(-c2nc(-c3ccncc3)nn2CCN(C(=O)Nc2c(C)cccc2C)C2CCCC2)cc1Cl [Entry 123, N-(2-{5-[3-chloro-4-(methyloxy)phenyl]-3-pyridin-4-yl-1H-1,2,4-triazol-1-yl}ethyl)-N-cyclopentyl-N′-(2,6-dimethylphenyl)urea] | ≥ 10 µM
10 | COc1ccc(-c2nc(-c3ccncc3)nn2CCN(C(=O)Nc2ccc(C(F)(F)F)cc2)C2CCCC2)cc1Cl [Entry 124, N-(2-{5-[3-chloro-4-(methyloxy)phenyl]-3-pyridin-4-yl-1H-1,2,4-triazol-1-yl}ethyl)-N-cyclopentyl-N′-[4-(trifluoromethyl)phenyl]urea] | ≥ 10 µM
11 | COc1ccc(-c2nc(-c3ccncc3)nn2CCN(C(=O)Nc2cc(Cl)c(Cl)cc2Cl)C2CCCC2)cc1Cl [Entry 126, N-(2-{5-[3-chloro-4-(methyloxy)phenyl]-3-pyridin-4-yl-1H-1,2,4-triazol-1-yl}ethyl)-N-cyclopentyl-N′-(2,4,5-trichlorophenyl)urea] | ≥ 10 µM
12 | COc1ccc(-c2nc(-c3ccncc3)nn2CCN(C(=O)Nc2ccc(C)cc2C)C2CCCC2)cc1Cl [Entry 128, N-(2-{5-[3-chloro-4-(methyloxy)phenyl]-3-pyridin-4-yl-1H-1,2,4-triazol-1-yl}ethyl)-N-cyclopentyl-N′-(2,4-dimethylphenyl)urea] | ≥ 10 µM
13 | COc1ccc(-c2nc(-c3ccncc3)nn2CCN(C(=O)Nc2ccc(C)c(Cl)c2)C2CCCC2)cc1Cl [Entry 129, N-(2-{5-[3-chloro-4-(methyloxy)phenyl]-3-pyridin-4-yl-1H-1,2,4-triazol-1-yl}ethyl)-N′-(3-chloro-4-methylphenyl)-N-cyclopentylurea] | ≥ 10 µM
14 | COc1ccc(-c2nc(-c3ccncc3)nn2CCN(C(=O)Nc2c(C)cccc2C(C)(C)C)C2CCCC2)cc1Cl [Entry 130, N-(2-{5-[3-chloro-4-(methyloxy)phenyl]-3-pyridin-4-yl-1H-1,2,4-triazol-1-yl}ethyl)-N-cyclopentyl-N′-[2-(1,1-dimethylethyl)-6-methylphenyl]urea] | ≥ 10 µM
15 | CCCCOc1ccc(NC(=O)N(CCn2nc(-c3ccncc3)nc2-c2ccc(OC)c(Cl)c2)C2CCCC2)cc1 [Entry 131, N′-[4-(butyloxy)phenyl]-N-(2-{5-[3-chloro-4-(methyloxy)phenyl]-3-pyridin-4-yl-1H-1,2,4-triazol-1-yl}ethyl)-N-cyclopentylurea] | ≥ 10 µM
16 | COc1ccc(-c2nc(-c3ccncc3)nn2CCN(C(=O)Nc2cccc([N+](=O)[O-])c2C)C2CCCC2)cc1Cl [Entry 132, N-(2-{5-[3-chloro-4-(methyloxy)phenyl]-3-pyridin-4-yl-1H-1,2,4-triazol-1-yl}ethyl)-N-cyclopentyl-N′-(2-methyl-3-nitrophenyl)urea] | ≥ 10 µM
17 | COc1ccc(-c2nc(-c3ccncc3)nn2CCN(C(=O)Nc2cc(Cl)ccc2Cl)C2CCCC2)cc1Cl [Entry 133, N-(2-{5-[3-chloro-4-(methyloxy)phenyl]-3-pyridin-4-yl-1H-1,2,4-triazol-1-yl}ethyl)-N-cyclopentyl-N′-(2,5-dichlorophenyl)urea] | ≥ 10 µM

Second part, the compound after the results:

Row | IC50 | SMILES
18 | ≥ 10 µM | CCCCCCCNC(=O)N(CCn1nc(-c2ccncc2)nc1-c1ccc(OC)c(Cl)c1)C1CCCC1 [Entry 104, N-(2-{5-[3-chloro-4-(methyloxy)phenyl]-3-pyridin-4-yl-1H-1,2,4-triazol-1-yl}ethyl)-N-cyclopentyl-N′-heptylurea]
19 | ≥ 10 µM | COc1ccc(-c2nc(-c3ccncc3)nn2CCN(C(=O)Nc2cccc(Cl)c2)C2CCCC2)cc1Cl [Entry 105, N-(2-{5-[3-chloro-4-(methyloxy)phenyl]-3-pyridin-4-yl-1H-1,2,4-triazol-1-yl}ethyl)-N′-(3-chlorophenyl)-N-cyclopentylurea]
20 | ≥ 10 µM | COc1ccc(-c2nc(-c3ccncc3)nn2CCN(C(=O)Nc2cccc(C)c2)C2CCCC2)cc1Cl [Entry 106, N-(2-{5-[3-chloro-4-(methyloxy)phenyl]-3-pyridin-4-yl-1H-1,2,4-triazol-1-yl}ethyl)-N-cyclopentyl-N′-(3-methylphenyl)urea]
21 | ≥ 10 µM | COc1ccc(-c2nc(-c3ccncc3)nn2CCN(C(=O)NC(C)(C)C)C2CCCC2)cc1Cl [Entry 107, N-(2-{5-[3-chloro-4-(methyloxy)phenyl]-3-pyridin-4-yl-1H-1,2,4-triazol-1-yl}ethyl)-N-cyclopentyl-N′-(1,1-dimethylethyl)urea]
22 | ≥ 10 µM | COc1ccc(-c2nc(-c3ccncc3)nn2CCN(C(=O)NC(C)C)C2CCCC2)cc1Cl [Entry 108, N-(2-{5-[3-chloro-4-(methyloxy)phenyl]-3-pyridin-4-yl-1H-1,2,4-triazol-1-yl}ethyl)-N-cyclopentyl-N′-(1-methylethyl)urea]
23 | ≥ 10 µM | CCNC(=O)N(CCn1nc(-c2ccncc2)nc1-c1ccc(OC)c(Cl)c1)C1CCCC1 [Entry 109, N-(2-{5-[3-chloro-4-(methyloxy)phenyl]-3-pyridin-4-yl-1H-1,2,4-triazol-1-yl}ethyl)-N-cyclopentyl-N′-ethylurea]
24 | ≥ 10 µM | CCCNC(=O)N(CCn1nc(-c2ccncc2)nc1-c1ccc(OC)c(Cl)c1)C1CCCC1 [Entry 110, N-(2-{5-[3-chloro-4-(methyloxy)phenyl]-3-pyridin-4-yl-1H-1,2,4-triazol-1-yl}ethyl)-N-cyclopentyl-N′-propylurea]
25 | 1 to 10 µM | CCOc1ccc(NC(=O)N(CCn2nc(-c3ccncc3)nc2-c2ccc(OC)c(Cl)c2)C2CCCC2)cc1 [Entry 111, N-(2-{5-[3-chloro-4-(methyloxy)phenyl]-3-pyridin-4-yl-1H-1,2,4-triazol-1-yl}ethyl)-N-cyclopentyl-N′-[4-(ethyloxy)phenyl]urea]
26 | ≥ 10 µM | CCc1ccc(NC(=O)N(CCn2nc(-c3ccncc3)nc2-c2ccc(OC)c(Cl)c2)C2CCCC2)cc1 [Entry 112, N-(2-{5-[3-chloro-4-(methyloxy)phenyl]-3-pyridin-4-yl-1H-1,2,4-triazol-1-yl}ethyl)-N-cyclopentyl-N′-(4-ethylphenyl)urea]
27 | 1 to 10 µM | COc1ccc(-c2nc(-c3ccncc3)nn2CCN(C(=O)Nc2ccccc2Cl)C2CCCC2)cc1Cl [Entry 118, N-(2-{5-[3-chloro-4-(methyloxy)phenyl]-3-pyridin-4-yl-1H-1,2,4-triazol-1-yl}ethyl)-N′-(2-chlorophenyl)-N-cyclopentylurea]
28 | 1 to 10 µM | CCOc1ccccc1NC(=O)N(CCn1nc(-c2ccncc2)nc1-c1ccc(OC)c(Cl)c1)C1CCCC1 [Entry 121, N-(2-{5-[3-chloro-4-(methyloxy)phenyl]-3-pyridin-4-yl-1H-1,2,4-triazol-1-yl}ethyl)-N-cyclopentyl-N′-[2-(ethyloxy)phenyl]urea]
29 | 1 to 10 µM | COc1ccc(-c2nc(-c3ccncc3)nn2CCN(C(=O)N[C@@H](C)c2ccccc2)C2CCCC2)cc1Cl [Entry 125, N-(2-{5-[3-chloro-4-(methyloxy)phenyl]-3-pyridin-4-yl-1H-1,2,4-triazol-1-yl}ethyl)-N-cyclopentyl-N′-[(1S)-1-phenylethyl]urea]
30 | 1 to 10 µM | COc1ccc(-c2nc(-c3ccncc3)nn2CCN(C(=O)Nc2cccc(C)c2C)C2CCCC2)cc1Cl [Entry 127, N-(2-{5-[3-chloro-4-(methyloxy)phenyl]-3-pyridin-4-yl-1H-1,2,4-triazol-1-yl}ethyl)-N-cyclopentyl-N′-(2,3-dimethylphenyl)urea]
